According to PubChem BioAssay (NCI):
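All cell lines were grown in 96-well plates and treated with compound for 48 hours. The concentration for full growth arrest is given as TGI.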

Tests used:
Experiment in all cases: growth of human tumour cells (NCI), 48 h
NCI-H522 lung = tested on: NCI-H522 lung
HOP-62 NSCLC = tested on: HOP-62 NSCLC
IGROV1 ovarian = tested on: IGROV1 ovarian
NCI-H226 lung = tested on: NCI-H226 lung
PC-3 prostate = tested on: PC-3 prostate
MOLT-4 leukemia = tested on: MOLT-4 leukemia
HOP-92 NSCLC = tested on: HOP-92 NSCLC
SK-MEL-2 melanoma = tested on: SK-MEL-2 melanoma
K-562 leukemia = tested on: K-562 leukemia
786-0 renal = tested on: 786-0 renal

Structure (SMILES) | TGI (NCI-H522 lung) | TGI (HOP-62 NSCLC) | TGI (IGROV1 ovarian) | TGI (NCI-H226 lung) | TGI (PC-3 prostate) | TGI (MOLT-4 leukemia) | TGI (HOP-92 NSCLC) | TGI (SK-MEL-2 melanoma) | TGI (K-562 leukemia) | TGI (786-0 renal)
CC(C)(C)[C@H]1CCC2(OCCO2)[C@](O)(CCCO)C1 | > 100 µM | > 100 µM | > 100 µM | > 100 µM | > 100 µM | > 100 µM | > 100 µM | > 100 µM | > 100 µM | > 100 µM
C=C(C(=O)OC)c1cc2ccccc2n1S(=O)(=O)c1ccccc1 | 2.54 µM | 11.1 µM | 4.21 µM | 7.22 µM | 9.51 µM | > 24 µM | 3.34 µM | 10.5 µM | > 100 µM | > 33.5 µM
N#Cc1nc(CCC(c2nc(C#N)c(N)o2)N2C(=O)c3ccccc3C2=O)oc1N (stereo not given) | > 100 µM | > 100 µM | > 100 µM | > 100 µM | > 100 µM | > 100 µM | > 100 µM | > 100 µM | > 100 µM | > 100 µM
COc1ccc(-c2cc(-c3cc(F)c(Cl)cc3Cl)on2)cc1OC | > 100 µM | > 100 µM | > 100 µM | 80.6 µM | > 100 µM | 49.5 µM | > 100 µM | 97.7 µM | > 100 µM | > 100 µM
CCOC(=O)C(C(=O)OCC)=C1NC2(c3ccccc3Nc3ccc(C)cc32)C(C(=O)OC)S1 (stereo not given) | > 100 µM | > 100 µM | > 100 µM | > 100 µM | > 100 µM | > 100 µM | 44.4 µM | 63.1 µM | > 100 µM | > 100 µM
COc1cc2c(cc1OCCCC(=O)Nc1cc(C(=O)NCCCN(C)C)n(C)n1)N=CC1CCCN1C2=O (stereo not given) | 15.1 µM | > 43.7 µM | > 23.5 µM | > 38.2 µM | 50.4 µM | 3.65 µM | 13.2 µM | 32.7 µM | 3.8 µM | > 23.5 µM
Clc1nc(Cl)c(CBr)c(Cl)n1 | 2.92 µM | 9.72 µM | 14.1 µM | > 51.7 µM | 17.7 µM | > 23 µM | 5.07 µM | 43.1 µM | > 23.5 µM | 5.18 µM
C#CC(O)/C=C/C(O)CCCC(O)CC#CC(O)C#CC(O)CCCC(O)/C=C/CCCC(=O)CCCCCCCCCCCCCCCC(O)C(O)C#CC(=O)O (stereo not given) | 17.5 µM | > 50 µM | 21.1 µM | > 50 µM | > 50 µM | > 50 µM | > 50 µM | > 50 µM | > 50 µM | > 50 µM
NC1CC(=O)c2sccc21 (stereo not given) | > 100 µM | > 100 µM | > 100 µM | > 100 µM | > 100 µM | > 100 µM | > 100 µM | 79.3 µM | > 100 µM | > 100 µM
COc1ccc2cc(C(=O)NCCCNC(=O)c3ccc4cc(OC)ccc4c3)ccc2c1 | > 100 µM | 42.1 µM | > 100 µM | > 100 µM | > 100 µM | > 100 µM | 45.2 µM | > 100 µM | > 100 µM | 57.5 µM
c1ccc(C(CCN2CC3CCC(CC3)C2)c2ccccc2)cc1 | 31.9 µM | 70.5 µM | > 100 µM | 35.6 µM | > 100 µM | 42.6 µM | 64.4 µM | 37.8 µM | 47.7 µM | 36.1 µM
O=C1c2ccccc2-c2nc(/C=C/c3ccccc3)cc3c2c1nc1ccccc13 | 30.2 µM | 76.3 µM | > 100 µM | > 100 µM | > 100 µM | > 100 µM | > 100 µM | > 100 µM | 32.2 µM | > 100 µM
CCOC(=O)Cn1c(=O)c2cc(-c3ccccc3)cc3c(Cl)nc4c(OC)c(OC)cc1c4c32 | 39.4 µM | > 100 µM | 27.5 µM | > 100 µM | 55.4 µM | 14.2 µM | 54.6 µM | 35.4 µM | > 55 µM | > 100 µM
O=[N+]([O-])c1ccc2c(c1)c(S(=O)(=O)O)cc1nonc12 | > 100 µM | > 100 µM | > 100 µM | > 100 µM | > 100 µM | > 100 µM | > 100 µM | > 100 µM | > 100 µM | > 100 µM
CC(=O)O[C@H]1C[C@H]2C(=S)Nc3ccccc3C(=S)N2C1 | > 100 µM | > 100 µM | > 100 µM | > 100 µM | > 100 µM | > 100 µM | > 100 µM | > 100 µM | > 100 µM | > 100 µM
Oc1cccc(-c2cn3cc(C(F)(F)F)ccc3n2)c1 | 35.4 µM | > 100 µM | > 100 µM | > 100 µM | > 100 µM | 40.1 µM | > 100 µM | > 100 µM | > 100 µM | > 100 µM
COC(=O)[C@H](Cc1ccccc1)NP(=O)(O)OCC1C=CC(n2cc(C)c(=O)[nH]c2=O)O1 (stereo not given in full) | > 100 µM | > 100 µM | > 100 µM | > 100 µM | > 100 µM | > 100 µM | > 100 µM | > 100 µM | > 100 µM | > 100 µM
